Assay results published in patent US8497298B2, “Use of benzo-fused heterocycle sulfamide derivatives for lowering lipids and lowering blood glucose levels” (Janssen Pharmaceutica NV, priority 2005, dated 2013).

Test system: db/db mice
Test: Female db/db Mouse Assay, Study A: single dose part and dose response part (Example 14)
Assay type: in vivo
Excerpt: 0.5% Hydroxypropyl Methylcellulose (Methocel) used as vehicle/control.
Db/db mice are susceptible to Type 2 diabetes. […] All of the mice were quarantined for a period of one week before transfer to the animal procedure room. A drop of blood (about 2 microliters) was collected by tail puncture and glucose concentration was detected with a glucometer (OneTouch UltraSmart, Lifescan, Milpitas, Calif.). […] Animals were separated and single housed at least three days prior to the drug treatments to allow acclimation to the new surroundings.
In the second, dose response part of Study A, 48 mice were allocated into 4 treatment groups of 12 mice each.
The dosing volume was 5 mL/kg body weight (0.2 mL for 40 gram mice). The mice were fed ad lib throughout the study. A necropsy was completed 18 hours after last dosing.
Blood glucose levels were measured from blood collected through tail puncture using a glucometer at 1000 hour. The mice were anaesthetized with sodium pentobarbital (1 ml/kg, intraperitoneal [i.p.] injection, SleepAway, Fort Dodge, Iowa) and blood was drawn via cardiac puncture using 1 mL syringe and collected into heparinized tubes. White adipose tissues (WAT) (retroperitoneal and inguinal fat pads), brown adipose tissure (BAT) and skeletal muscles (gastrocnemius and soleus muscle) and stomach contents were dissected and weighed. Plasma samples were obtained by centrifuging whole blood at 2000˜3000 g for 10˜20 minutes at 4° C. and stored at −20° C. for further measurement of insulin, HDL, LDL, total cholesterol and triglyceride.
Plasma insulin concentrations were measured by in both studies using the appropriate rat/mouse insulin enzyme-linked immunosorbent assay (ELISA) kit (EZRMI-13K, LINCO Research, St. Charles, Mo.). Blood samples were diluted 1:4 in charcoal stripped mouse serum that was included in the ELISA kit. The rest of the procedure followed the manufacturers instruction. The total fluorescence was detected using an Orion 1 Microplate Luminometer (Berthold Detection Systems, Pforzheim, Germany).
According to manufacturers protocol, cholesterol measurement was an enzymatic method utilizing cholesterol esterase and cholesterol oxidase conversion followed by a Trinder endpoint; Elimination/catalase method was used for HDL measurement; an enzymatic method with a Trinder endpoint was used for triglyceride measurement.
Data from both parts of the Study (single dose and dose response) was analyzed using the standard two-tailed Student's t-test and are expressed below as means and standard errors.

[1] = dose response part, 10 mg/kg, plasma
[2] = dose response part, 30 mg/kg, plasma
[3] = dose response part, 100 mg/kg, plasma
[4] = single dose part, Compound #8 300 mg/kg
[5] = single dose part, Compound #8 300 mg/kg oral once daily 10 days
[6] = single dose part, Compound #8 300 mg/kg, plasma

Q: How did the “total cholesterol concentrations elevated relative to vehicle” value (Compound #8, dose not given) turn out when `NS(=O)(=O)NC[C@H]1COc2cc(Cl)ccc2O1` [Compound #8, (2S)-(−)-N-(6-Chloro-2,3-dihydro-benzo[1,4]dioxin-2-ylmethyl)-sulfamide] was run?
A: The value was 18.7%.

Q: And the “Brown Adipose Tissue” value (dose response part, 10 mg/kg)?
A: Its value is 0.23 ± 0.01 g.

Q: And the Inguinal fat (dose response part, 10 mg/kg)?
A: Its Inguinal fat is 2.15 ± 0.11 g.

Q: And the Insulin (dose response part, 10 mg/kg)?
A: The Insulin was 11.9 ± 2.5 ng/mL.

Q: What about the Muscle (dose response part, 10 mg/kg) of the same molecule?
A: Its Muscle is 0.140 ± 0.004 g.

Q: What about the “Ratio (Triglyceride to HDL)” value (dose response part, 10 mg/kg) of the same molecule?
A: Its value is 3.5 ± 0.3.

Q: And the “Ratio (fat/muscle)” value (dose response part, 10 mg/kg)?
A: The value was 25.9 ± 0.8.

Q: What about the Retroperitoneal fat (dose response part, 10 mg/kg) of the same molecule?
A: Its Retroperitoneal fat is 1.47 ± 0.04 g.

Q: What about the Glucose (dose response part, 10 mg/kg oral once daily 10 days) of the same molecule?
A: The Glucose was 420 ± 10 mg/dL.

Q: What about the Cholesterol [1] of the same molecule?
A: The Cholesterol was 92 ± 3 mg/dL.

Q: What about the HDL [1] of the same molecule?
A: Its HDL is 47.1 ± 1.5 mg/dL.

Q: And the Triglyceride [1]?
A: The Triglyceride was 166 ± 13 mg/dL.

Q: And the “Brown Adipose Tissue” value (dose response part, 30 mg/kg)?
A: The value was 0.22 ± 0.01 g.

Q: And the Inguinal fat (dose response part, 30 mg/kg)?
A: Its Inguinal fat is 1.97 ± 0.07 g.

Q: What about the Insulin (dose response part, 30 mg/kg) of the same molecule?
A: Its Insulin is 10.8 ± 2.9 ng/mL.

Q: And the Muscle (dose response part, 30 mg/kg)?
A: The Muscle was 0.141 ± 0.003 g.

Q: And the “Ratio (Triglyceride to HDL)” value (dose response part, 30 mg/kg)?
A: The value was 4.1 ± 0.3.

Q: What about the “Ratio (fat/muscle)” value (dose response part, 30 mg/kg) of the same molecule?
A: Its value is 24.5 ± 0.5.

Q: And the Retroperitoneal fat (dose response part, 30 mg/kg)?
A: The Retroperitoneal fat was 1.49 ± 0.07 g.

Q: What about the Glucose (dose response part, 30 mg/kg oral once daily 10 days) of the same molecule?
A: The Glucose was 439 ± 13 mg/dL.

Q: What about the Cholesterol [2] of the same molecule?
A: The Cholesterol was 95 ± 2 mg/dL.

Q: What about the HDL [2] of the same molecule?
A: The HDL was 49.2 ± 1.7 mg/dL.

Q: What about the Triglyceride [2] of the same molecule?
A: Its Triglyceride is 202 ± 18 mg/dL.

Q: And the “Brown Adipose Tissue” value (dose response part, 100 mg/kg)?
A: The value was 0.24 ± 0.00 g.

Q: What about the Inguinal fat (dose response part, 100 mg/kg) of the same molecule?
A: The Inguinal fat was 2.05 ± 0.09 g.

Q: What about the Insulin (dose response part, 100 mg/kg) of the same molecule?
A: The Insulin was 3.9 ± 1.4 ng/mL.

Q: What about the Muscle (dose response part, 100 mg/kg) of the same molecule?
A: The Muscle was 0.140 ± 0.007 g.

Q: What about the “Ratio (Triglyceride to HDL)” value (dose response part, 100 mg/kg) of the same molecule?
A: Its value is 3.3 ± 0.3.

Q: What about the “Ratio (fat/muscle)” value (dose response part, 100 mg/kg) of the same molecule?
A: Its value is 26.3 ± 1.0.

Q: And the Retroperitoneal fat (dose response part, 100 mg/kg)?
A: Its Retroperitoneal fat is 1.55 ± 0.11 g.

Q: And the “hyperinsulinemia decreased compared to vehicle treated mice” value (dose response part, 100 mg/kg)?
A: Its value is 63.5%.

Q: And the Glucose (dose response part, 100 mg/kg oral once daily 10 days)?
A: Its Glucose is 394 ± 17 mg/dL.

Q: And the stomach content (dose response part, 100 mg/kg, control 0.35±0.03 g, p<0.05)?
A: The stomach content was 0.51 ± 0.04 g.

Q: And the Cholesterol [3]?
A: Its Cholesterol is 102 ± 3 mg/dL.

Q: And the HDL [3]?
A: The HDL was 51.7 ± 1.7 mg/dL.

Q: And the Triglyceride [3]?
A: The Triglyceride was 169 ± 10 mg/dL.

Q: What about the “food intake and body weight” value (dose response part, 10, 30 and 100 mg/kg groups) of the same molecule?
A: The value was “no differences”.

Q: And the “Glucose levels reduced compared to vehicle treated mice” value (single dose part, 300 mg/kg)?
A: Its value is 50%.

Q: What about the “HDL elevated compared to vehicle” value (single dose part, 300 mg/kg) of the same molecule?
A: Its value is 22.8%.

Q: What about the “plasma triglyceride decreased compared to vehicle” value (single dose part, 300 mg/kg) of the same molecule?
A: Its value is 39.4%.

Q: What about the “ratio of triglyceride to HDL reduced” value (single dose part, 300 mg/kg) of the same molecule?
A: The value was 50.2%.

Q: What about the “stomach content weights versus vehicle at the end of the experiment” value (single dose part, 300 mg/kg) of the same molecule?
A: Its value is “two times greater”.

Q: And the “Brown Adipose Tissue” value [4]?
A: Its value is 0.25 ± 0.01 g.

Q: What about the “Final weight Body weight” value [4] of the same molecule?
A: Its value is 39 ± 0.9 g.

Q: And the “Final weight Stomach contents” value [4]?
A: The value was 0.52 ± 0.07 g.

Q: What about the Inguinal fat [4] of the same molecule?
A: The Inguinal fat was 2.28 ± 0.11 g.

Q: What about the Muscle [4] of the same molecule?
A: The Muscle was 0.154 ± 0.00 g.

Q: And the Retroperitoneal fat [4]?
A: Its Retroperitoneal fat is 1.31 ± 0.07 g.

Q: And the “Total chow consumption Day 1-3” value [4]?
A: Its value is 14 ± 0.9 g.

Q: And the “Total chow consumption Day 4-6” value [4]?
A: Its value is 14.9 ± 1.1 g.

Q: What about the “Total chow consumption Day 7-9” value [4] of the same molecule?
A: Its value is 16 ± 0.6 g.

Q: What about the Glucose [5] of the same molecule?
A: Its Glucose is 210 ± 27 mg/dL.

Q: And the Insulin [5]?
A: The Insulin was 16.0 ± 2.5 ng/mL.

Q: And the Cholesterol [6]?
A: The Cholesterol was 108 ± 3 mg/dL.

Q: And the HDL [6]?
A: The HDL was 55.9 ± 1.2 mg/dL.

Q: What about the LDL [6] of the same molecule?
A: The LDL was 3.4 ± 0.2 mg/dL.

Q: And the “Ratio (Triglyceride to HDL)” value [6]?
A: Its value is 1.8 ± 0.3.

Q: What about the Triglyceride [6] of the same molecule?
A: Its Triglyceride is 98 ± 13 mg/dL.

Q: What about the “Ratio (fat/muscle)” value (single dose part, Compound #8 300 mg/kg, total inguinal and retroperitoneal fat/muscle weight) of the same molecule?
A: Its value is 23.4 ± 0.9.
